Experimental data reported in patent US20020055528A1, “Artemisinin analogs having antimalarial, antiproliferative, and antitumor activities and chemoselective methods of making the same” (priority 1999, published 2002).
pIC50: −log10 of the molar value. Like-named read-outs stand apart in the source and are kept apart here.

Key:
[1] = tested on: chloroquine-sensitive P. falciparum (NF54); experiment: Antimalarial screening, [3H]hypoxanthine incorporation; format: cell-based, Plasmodium falciparum
Method: Activity was determined by measuring the incorporation of [^3H]hypoxanthine, by the methods of Desjardins and Milhouse, with the following modifications, see […].; Haynes, […]. Antimicrob. Agents Chemother., 16: 710 (1979); Milhous, W. K.; Weatherly, […].; Antimicrob. Agents Chemother., 27: 525 (1985). […] Calbiochem #391338), 27 mM NaHCO3 (Gibco BRL # 11810-025), and 10% heat-inactivated human type O+serum (Interstate Blood Bank, Inc.), under 3% O2, 4% CO2, and 93% N2-Parasitemia was maintained at 0.05-3% and doubling time at approximately 15 hours by twice weekly change of medium and replenishment with fresh erythrocytes. […] Sigma-Aldrich #27,043-1). DMSO solutions were diluted 500-fold in medium, serially diluted in 0.2% DMSO in medium (to maintain constant solvent concentration), then 100 μL aliquots were pipetted into microtiter plate wells (Costar3595). […] Cells were harvested (Brandel MB-48R) onto GF-C glass filters (Brandel). The filters were washed five times with 3 mL water per sample spot, dried under a heat lamp, and counted (Beckman Model LS-6500) in scintillation cocktail (ICN Cytoscint). Decays per minute (dpm) values were downloaded and analyzed (Power Macintosh 7200/90; Microsoft Excel 5.0), to yield the mean and standard deviation at each drug concentration.

[2] = tested on: murine keratinocyte cell line PE; experiment: Growth inhibition of PE cells, MTT assay; format: cell-based; details: 96 hours
Method: To determine the inhibitory effect of the compositions of the present invention on cell proliferation, screening assays were performed on a murine keratinocyte cell line PE. Cell line PE was chosen for its particular sensitivity to the induction of omithine decarboxylase (ODC) activity by the extensively characterized tumor promoter TPA. Cell line PE was derived from a papilloma-induced in female SENCAR mice by a standard skin initiation/promotion protocol, see Yuspa, S. H., et al., Carcinogenesis, 7:949-958 (1986). PE cell culture medium consisted of Eagle's minimal essential medium without calcium chloride (Whittaker Bioproducts, Walkersville, Mass.) supplemented with 8% chelexed fetal calf serum and 1% antibiotic-antimycotic (Gibco BRL) and the addition of CaCI2 to 0.05 mM Ca^++
MTT [3-(4,5-dimethylthiazol-2-yl)-2,5-diphenyltetraxolium bromide] was purchased from Sigma Chemical Co. (St. Louis, Mo.), and TPA was supplied by L.C. Services (Woburn, Mass.). L-[^14C]omithine ([…]) was from Amersham/Searle Corp. (Arlington Heights, Ill.). Chemical solvents used in all assays of biological activity were of the highest grade commercially available.
Growth curves, shown in FIG. 5, for PE cells treated with calcitriol and the C-10 carbon-substituted dimers VII-f, VII-g and VII-h generated by assay for the reduction of the tetrazolium-based compound MTT, see Charmichael, et al., Cancer Res., 47:936-942 (1987). A mitochondrial dehydrogenase reduces MTT to a blue formazan product with an absorbance maximum of 505 nm in DMSO; the number of viable cells can thus be determined spectrophotometrically. PE cells were seeded at a density of 5,000 cells/well in 50 IL of medium into 96-well microtiter plates. Twelve hours later, the medium was removed, and cells were treated with 100 μL of fresh medium into which the appropriate amount of calcitriol or analog dissolved in dimethyl sulfoxide (DMSO) had been added, with the concentration of DMSO held constant at 0.1 %. […] At 24-hour intervals following the initial treatment of the cells with compounds, 0.1 mg (50 μL of a 2 mg/mL solution) of MTT was added to each well. After 4 hours, the MTT was removed and DMSO added to dissolve the blue formazan dye. Using a microtiter plate reader, the A505 was then determined and cell number calculated from blank-subtracted absorbance values.

[3] = in vivo; cited from earlier work
P. berghei = details: P. berghei-infected mice; cited from earlier work
[4] = rat liver microsomes; cited from earlier work
[5] = chloroquine-sensitive P. falciparum (NF54), read-out: IC50
[6] = Plasmodium falciparum, NF54, chloroquine-sensitive P. falciparum (NF54), read-out: IC50

Compound: CC1=C(C=Cc2ccc([N+](=O)[O-])cc2)OC2OC3(C)CCC4C(C)CCC1C24OO3 (stereo not drawn) [E-VII-d, 10-(p-Nitrostyryl)anhydroartemisinin]
- pIC50 [1, 5]: 7.96

Compound: CC1=C(C=Cc2ccccc2)OC2OC3(C)CCC4C(C)CCC1C24OO3 (stereo not drawn) [E-VII-c, 10-(Styryl)anhydroartemisinin]
- pIC50 [1, 5]: 7.80

Compound: CC1=C(C=Cc2ccccc2)OC2OC3(C)CCC4C(C)CCC1C24OO3 (stereo not drawn) [Z-VII-C, 10-(Styryl)anhydroartemisinin]
- pIC50 [1, 5]: 8.09

Compound: C=C1/C(=C\C=C2/CCC[C@]3(C)[C@@H]([C@H](C)CCCC(C)(C)O)CC[C@@H]23)C[C@@H](O)C[C@@H]1O [calcitriol, 1α, 25-dihydroxyvitamin D3, reference compound]
- viability of treated cells by trypan blue exclusion [2]: identical to control cells

Compound: C[C@H]1[C@@H](O)O[C@@H]2O[C@@]3(C)CC[C@H]4[C@H](C)CC[C@@H]1[C@@]24OO3 [II-1, dihydroartemisinin]
- half-life in plasma [3]: less than two hours

Compound: CC1=C(C(=O)c2ccccc2)O[C@@H]2O[C@@]3(C)CC[C@H]4[C@H](C)CC[C@@H]1[C@@]24OO3 [I-4, 10-Benzoylanhydroartemisinin]
- pIC50 [1, 6]: 8.34

Compound: CC1=C(C=Cc2ccc([N+](=O)[O-])cc2)OC2OC3(C)CCC4C(C)CCC1C24OO3 (stereo not drawn) [Z-VII-d, 10-(p-Nitrostyryl)anhydroartemisinin]
- pIC50 [1, 5]: 8.00

Compound: C=CC1=C(C)C2CCC(C)C3CCC4(C)OOC23C(O1)O4 (stereo not drawn) [VII-a, 10-Vinylanhydroartemisinin]
- pIC50 [1, 5]: 7.55

Compound: 10-(Benzhydryl)anhydroartemisinin [I-5]
- pIC50 [1, 5]: 8.35

Compound: CC1=C(c2nc3ccccc3s2)OC2OC3(C)CCC4C(C)CCC1C24OO3 (stereo not drawn) [Benzo-4, 10-(2′-Benzothiazolyl)anhydroartemisinin]
- pIC50 [1, 5]: 8.11

Compound: CC1=C(C=O)O[C@@H]2O[C@@]3(C)CC[C@H]4[C@H](C)CC[C@@H]1[C@@]24OO3 [Ie, 10-Formylanhydroartemisinin]
- pIC50 [1, 6]: 7.43
- melting point: 115 to 117 °C

Compound: CC1=C(c2nccs2)O[C@@H]2O[C@@]3(C)CC[C@H]4[C@H](C)CC[C@@H]1[C@@]24OO3 [Ib, 10-(2′-Thiazolyl)anhydroartemisinin]
- pIC50 ([1]; Plasmodium falciparum, NF54): 7.85

Compound: CC1=CO[C@@H]2O[C@]3(C)CC[C@H]4[C@H](C)CC[C@@H]1[C@@]24OO3 [III]
- activity in words (P. berghei): inactive

Compound: CCO[C@H]1O[C@@H]2O[C@@]3(C)CC[C@H]4[C@H](C)CC[C@@H]([C@H]1C)[C@@]24OO3 [arteether]
- conversion into dihydroartemisinin (II-1) [4]: rapidly converted
